Data as given in PubChem BioAssay AID248 (DTP/NCI, 2004).
“And” between values parts separate entries of the source, which are not always exact repeats. Equal entries are not always repeated. Toxic doses and inconclusive results are not listed.

Test system: L1210 leukemia ip in BDF1 mice, survival T/C
Assay: NCI In Vivo Anticancer Drug Screen. Data for tumor model L1210 Leukemia (intraperitoneal) in B6D2F1 (BDF1) mice
Details: higher = longer survival
How it was run: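 Tumor was transplanted into mice, which were then dosed with test compound or vehicle alone. Survival was recorded for each group, and the treated figure was expressed relative to the control figure.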

COc1cc([C@@H]2c3cc4c(cc3[C@@H](OC3OC5CO[C@@H](c6cccs6)OC5C(O)C3O)[C@H]3COC(=O)[C@H]23)OCO4)cc(OC)c1O (stereo partly drawn)
T/C (endpoint: mean survival time, dose: 0.5 mg/kg/injection, schedule: Q03HX024 (ip), vehicle: other): 109 % of control | T/C (endpoint: mean survival time, dose: 1.0 mg/kg/injection, schedule: Q01DX009 (ip), vehicle: other): 111 % of control | T/C (endpoint: mean survival time, dose: 1.0 mg/kg/injection, schedule: Q03HX008 (ip), vehicle: other): 122 % of control | T/C (endpoint: mean survival time, dose: 1.0 mg/kg/injection, schedule: Q03HX016 (ip), vehicle: other): 111 % of control | T/C (endpoint: mean survival time, dose: 1.0 mg/kg/injection, schedule: Q03HX024 (ip), vehicle: other): 118 % of control | T/C (endpoint: mean survival time, dose: 2.0 mg/kg/injection, schedule: Q01DX009 (oral), vehicle: other): 104 % of control | T/C (endpoint: mean survival time, dose: 2.0 mg/kg/injection, schedule: Q03HX008 (oral), vehicle: other): 90 % of control | T/C (endpoint: mean survival time, dose: 2.0 mg/kg/injection, schedule: Q04DX003 (ip), vehicle: water): 194 % of control | T/C (endpoint: mean survival time, dose: 2.0 mg/kg/injection, schedule: Q08DX002 (ip), vehicle: water): 156 % of control | T/C (endpoint: mean survival time, dose: 4.0 mg/kg/injection, schedule: Q01DX001 (ip), vehicle: water): 157 % of control | T/C (endpoint: mean survival time, dose: 4.0 mg/kg/injection, schedule: Q01DX009 (oral), vehicle: other): 101 % of control | T/C (endpoint: mean survival time, dose: 4.0 mg/kg/injection, schedule: Q03HX008 (oral), vehicle: other): 98 % of control | T/C (endpoint: mean survival time, dose: 4.0 mg/kg/injection, schedule: Q04DX003 (ip), vehicle: other): 110 % of control | T/C (endpoint: mean survival time, dose: 4.0 mg/kg/injection, schedule: Q04DX003 (ip), vehicle: water): 241 % of control | T/C (endpoint: mean survival time, dose: 4.0 mg/kg/injection, schedule: Q08DX002 (ip), vehicle: water): 172 % of control | T/C (endpoint: mean survival time, dose: 8.0 mg/kg/injection, schedule: Q01DX001 (ip), vehicle: water): 162 % of control | T/C (endpoint: mean survival time, dose: 8.0 mg/kg/injection, schedule: Q01DX009 (oral), vehicle: other): 105 % of control | T/C (endpoint: mean survival time, dose: 8.0 mg/kg/injection, schedule: Q03HX008 (oral), vehicle: other): 100 % of control | T/C (endpoint: mean survival time, dose: 8.0 mg/kg/injection, schedule: Q03HX016 (ip), vehicle: other): 186 % of control | T/C (endpoint: mean survival time, dose: 8.0 mg/kg/injection, schedule: Q03HX016 (oral), vehicle: other): 95 % of control | T/C (endpoint: mean survival time, dose: 8.0 mg/kg/injection, schedule: Q03HX024 (oral), vehicle: other): 98 % of control | T/C (endpoint: mean survival time, dose: 8.0 mg/kg/injection, schedule: Q04DX003 (ip), vehicle: water): 426 % of control | T/C (endpoint: mean survival time, dose: 8.0 mg/kg/injection, schedule: Q04DX003 (oral), vehicle: other): 97 % of control | T/C (endpoint: mean survival time, dose: 8.0 mg/kg/injection, schedule: Q08DX002 (ip), vehicle: other): 109 % of control | T/C (endpoint: mean survival time, dose: 8.0 mg/kg/injection, schedule: Q08DX002 (ip), vehicle: water): 300 % of control | T/C (endpoint: mean survival time, dose: 16.0 mg/kg/injection, schedule: Q01DX001 (ip), vehicle: water): 439 % of control | T/C (endpoint: mean survival time, dose: 16.0 mg/kg/injection, schedule: Q01DX001 (oral), vehicle: other): 111 % of control | T/C (endpoint: mean survival time, dose: 16.0 mg/kg/injection, schedule: Q01DX009 (oral), vehicle: other): 103 % of control | T/C (endpoint: mean survival time, dose: 16.0 mg/kg/injection, schedule: Q03HX008 (oral), vehicle: other): 95 % of control | T/C (endpoint: mean survival time, dose: 16.0 mg/kg/injection, schedule: Q03HX016 (oral), vehicle: other): 94 % of control and 95 % of control | T/C (endpoint: mean survival time, dose: 16.0 mg/kg/injection, schedule: Q03HX024 (oral), vehicle: other): 93 % of control | T/C (endpoint: mean survival time, dose: 16.0 mg/kg/injection, schedule: Q04DX003 (ip), vehicle: water): 172 % of control | T/C (endpoint: mean survival time, dose: 16.0 mg/kg/injection, schedule: Q04DX003 (oral), vehicle: other): 106 % of control | T/C (endpoint: mean survival time, dose: 16.0 mg/kg/injection, schedule: Q08DX002 (ip), vehicle: other): 122 % of control | T/C (endpoint: mean survival time, dose: 16.0 mg/kg/injection, schedule: Q08DX002 (ip), vehicle: water): 423 % of control | T/C (endpoint: mean survival time, dose: 16.0 mg/kg/injection, schedule: Q08DX002 (oral), vehicle: other): 102 % of control | T/C (endpoint: mean survival time, dose: 32.0 mg/kg/injection, schedule: Q01DX001 (ip), vehicle: water): 242 % of control | T/C (endpoint: mean survival time, dose: 32.0 mg/kg/injection, schedule: Q01DX001 (oral), vehicle: other): 161 % of control | T/C (endpoint: mean survival time, dose: 32.0 mg/kg/injection, schedule: Q03HX016 (oral), vehicle: other): 98 % of control | T/C (endpoint: mean survival time, dose: 32.0 mg/kg/injection, schedule: Q03HX024 (oral), vehicle: other): 94 % of control | T/C (endpoint: mean survival time, dose: 32.0 mg/kg/injection, schedule: Q04DX003 (ip), vehicle: water): 103 % of control | T/C (endpoint: mean survival time, dose: 32.0 mg/kg/injection, schedule: Q04DX003 (oral), vehicle: other): 100 % of control | T/C (endpoint: mean survival time, dose: 32.0 mg/kg/injection, schedule: Q08DX002 (ip), vehicle: water): 163 % of control | T/C (endpoint: mean survival time, dose: 32.0 mg/kg/injection, schedule: Q08DX002 (oral), vehicle: other): 100 % of control | T/C (endpoint: mean survival time, dose: 64.0 mg/kg/injection, schedule: Q01DX001 (ip), vehicle: other): 188 % of control | T/C (endpoint: mean survival time, dose: 64.0 mg/kg/injection, schedule: Q01DX001 (oral), vehicle: other): 98 % of control | T/C (endpoint: mean survival time, dose: 64.0 mg/kg/injection, schedule: Q03HX024 (oral), vehicle: other): 92 % of control | T/C (endpoint: mean survival time, dose: 64.0 mg/kg/injection, schedule: Q04DX003 (oral), vehicle: other): 97 % of control | T/C (endpoint: mean survival time, dose: 64.0 mg/kg/injection, schedule: Q08DX002 (ip), vehicle: other): 190 % of control | T/C (endpoint: mean survival time, dose: 64.0 mg/kg/injection, schedule: Q08DX002 (oral), vehicle: other): 96 % of control | T/C (endpoint: mean survival time, dose: 128.0 mg/kg/injection, schedule: Q01DX001 (oral), vehicle: other): 101 % of control | T/C (endpoint: mean survival time, dose: 128.0 mg/kg/injection, schedule: Q03HX024 (oral), vehicle: other): 94 % of control | T/C (endpoint: mean survival time, dose: 128.0 mg/kg/injection, schedule: Q04DX003 (oral), vehicle: other): 96 % of control | T/C (endpoint: mean survival time, dose: 128.0 mg/kg/injection, schedule: Q08DX002 (oral), vehicle: other): 98 % of control | T/C (endpoint: mean survival time, dose: 600.0 mg/kg/injection, schedule: Q01DX009 (ip), vehicle: steriod suspending solution): 224 % of control | T/C (endpoint: mean survival time, dose: 800.0 mg/kg/injection, schedule: Q01DX009 (ip), vehicle: steriod suspending solution): 246 % of control | T/C (endpoint: mean survival time, dose: 1000.0 mg/kg/injection, schedule: Q01DX009 (ip), vehicle: steriod suspending solution): 169 % of control | T/C (endpoint: median survival time, dose: 1.0 mg/kg/injection, schedule: Q01DX009 (ip), vehicle: saline): 194 % of control | T/C (endpoint: median survival time, dose: 2.0 mg/kg/injection, schedule: Q01DX009 (ip), vehicle: saline): 116 % of control | T/C (endpoint: median survival time, dose: 4.0 mg/kg/injection, schedule: Q01DX009 (ip), vehicle: saline): 88 % of control

O=C(COc1cc(Cl)c(Cl)cc1Cl)Nc1cccc(C(F)(F)F)c1
T/C (endpoint: mean survival time, dose: 100.0 mg/kg/injection, schedule: Q04DX002 (ip), vehicle: saline): 100 % of control | T/C (endpoint: mean survival time, dose: 200.0 mg/kg/injection, schedule: Q04DX002 (ip), vehicle: saline): 92 % of control | T/C (endpoint: mean survival time, dose: 400.0 mg/kg/injection, schedule: Q04DX002 (ip), vehicle: saline): 111 % of control

COC(=O)CCC(C)C1CCC2C3C(OC(C)=O)CC4CC(O)CCC4(C)C3CC(O)C12C (stereo not drawn)
T/C (endpoint: mean survival time, dose: 100.0 mg/kg/injection, schedule: Q01DX009 (ip), vehicle: carboxymethylcellulose (CMC)): 93 % of control and 107 % of control | T/C (endpoint: mean survival time, dose: 100.0 mg/kg/injection, schedule: Q04DX002 (ip), vehicle: carboxymethylcellulose (CMC)): 93 % of control and 97 % of control | T/C (endpoint: mean survival time, dose: 100.0 mg/kg/injection, schedule: Q04DX003 (ip), vehicle: carboxymethylcellulose (CMC)): 104 % of control | T/C (endpoint: mean survival time, dose: 200.0 mg/kg/injection, schedule: Q01DX009 (ip), vehicle: carboxymethylcellulose (CMC)): 91 % of control and 92 % of control | T/C (endpoint: mean survival time, dose: 200.0 mg/kg/injection, schedule: Q04DX002 (ip), vehicle: carboxymethylcellulose (CMC)): 97 % of control and 98 % of control | T/C (endpoint: mean survival time, dose: 200.0 mg/kg/injection, schedule: Q04DX003 (ip), vehicle: carboxymethylcellulose (CMC)): 97 % of control | T/C (endpoint: mean survival time, dose: 400.0 mg/kg/injection, schedule: Q01DX009 (ip), vehicle: carboxymethylcellulose (CMC)): 94 % of control and 88 % of control | T/C (endpoint: mean survival time, dose: 400.0 mg/kg/injection, schedule: Q04DX002 (ip), vehicle: carboxymethylcellulose (CMC)): 97 % of control | T/C (endpoint: mean survival time, dose: 400.0 mg/kg/injection, schedule: Q04DX003 (ip), vehicle: carboxymethylcellulose (CMC)): 95 % of control

O=C1NC2(CCC(O)CC2)C(O)(c2ccccc2)C12CCCCC2 (stereo not drawn)
T/C (endpoint: mean survival time, dose: 75.0 mg/kg/injection, schedule: Q01DX001 (ip), vehicle: saline): 105 % of control | T/C (endpoint: mean survival time, dose: 150.0 mg/kg/injection, schedule: Q01DX001 (ip), vehicle: saline): 86 % of control | T/C (endpoint: mean survival time, dose: 300.0 mg/kg/injection, schedule: Q01DX001 (ip), vehicle: saline): 86 % of control

CO[Si](C)(C)C
T/C (endpoint: mean survival time, dose: 100.0 mg/kg/injection, schedule: Q01DX001 (ip), vehicle: saline): 98 % of control | T/C (endpoint: mean survival time, dose: 200.0 mg/kg/injection, schedule: Q01DX001 (ip), vehicle: saline): 98 % of control | T/C (endpoint: mean survival time, dose: 400.0 mg/kg/injection, schedule: Q01DX001 (ip), vehicle: saline): 100 % of control
